Results as given in US20060111416A1, “Octahydropyrrolo[3,4-C]pyrrole derivatives” (priority 2004, published 2006).
pKi: −log10 of the molar value.

These compounds were tested against T1, histamine H4 receptor (Homo sapiens, UniProt Q9H3N8) (assay: H4 binding ([3H]-Histamine competition binding on CHO cell membranes)). Settings: [3H]-Histamine 3 nM, membranes of CHO cells expressing the histamine H4 receptor; Ki calculated from IC50 by Cheng-Prussoff.
T1 construct: expressed in transfected cells; host or cells: CHO cells (membranes)
T1 sequence (Q9H3N8 whole entry): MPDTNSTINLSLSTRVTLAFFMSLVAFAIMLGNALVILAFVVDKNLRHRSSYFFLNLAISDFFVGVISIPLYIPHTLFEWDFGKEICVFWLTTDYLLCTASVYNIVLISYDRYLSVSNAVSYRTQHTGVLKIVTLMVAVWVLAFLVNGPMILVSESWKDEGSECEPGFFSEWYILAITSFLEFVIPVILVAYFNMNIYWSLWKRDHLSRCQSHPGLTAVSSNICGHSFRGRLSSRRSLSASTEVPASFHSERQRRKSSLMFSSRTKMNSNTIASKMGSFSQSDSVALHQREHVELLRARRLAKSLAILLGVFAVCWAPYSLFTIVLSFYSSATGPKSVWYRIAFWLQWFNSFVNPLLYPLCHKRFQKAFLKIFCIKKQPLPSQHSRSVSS
Method: Cell pellets from CHO cells expressing the histamine H4 receptor were homogenised in ice-cold 50 mM Tris-HCl/0.5 mM CaCl2 buffer containing a protease inhibitor cocktail (Roche®, United Kingdom) using a ground glass homogeniser. Homogenates were centrifuged at 48000 g for 30 min at 4° C. The membrane pellet was resuspended in fresh buffer and the centrifugation step was repeated as described above. The membrane pellet was resuspended in 50 mM Tris-HCl in the same volume as the original cell pellet.
The reaction was terminated by rapid filtration through 0.5% polyethylenimine-soaked Unifilter GF/B plates (Packard) followed by three washes with 1 ml ice-cold 50 mM Tris-HCl. Filters were dried for 45 min at 45° C. and bound radiolabel was determined using scintillation counting techniques. Non-specific binding was defined with 5 μM clobenpropit.

Point of comparison: Cc1ccc2[nH]c(C(=O)N3C[C@H]4CN(C)C[C@H]4C3)cc2c1 [Example 17, 5-Methyl-2-{[(3aR,6aS)-5-methylhexahydropyrrolo[3,4-c]pyrrol-2(1H)-yl]carbonyl}-1H-indole], pKi 7.08. Against it:
- CN1C[C@@H]2CN(C(=O)c3nc4ccccc4[nH]3)C[C@@H]2C1 [Example 1, 2-{[(3aR,6aS)5-Methylhexahydropyrrolo[3,4-c]pyrrol-2(1H)-yl]carbonyl}-1H-benzimidazole] — within 0.2 log units, 7.04
- CN1C[C@@H]2CN(C(=O)c3nc4cc(F)ccc4[nH]3)C[C@@H]2C1 [Example 3, 5-Fluoro-2-{[(3aR,6aS)-5-methylhexahydropyrrolo[3,4-c]pyrrol-2(1H)-yl]carbonyl}-1H-benzimidazole] — within 0.2 log units, 7.09
- CN1C[C@@H]2CN(C(=O)c3cc4cc(Cl)ccc4[nH]3)C[C@@H]2C1 [Example 7, 5-Chloro-2-{[(3aR,6aS)-5-methylhexahydropyrrolo[3,4-c]pyrrol-2(1H)-yl]carbonyl}-1H-indole] — 0.72 log units higher, 7.80
- CN1C[C@@H]2CN(C(=O)c3cc4cc(O)ccc4[nH]3)C[C@@H]2C1 [Example 15, 2-{[(3aR,6aS)-5-Methylhexahydropyrrolo[3,4-c]pyrrol-2(1H)-yl]carbonyl}-1H-indol-5-ol] — 0.47 log units higher, 7.55
- CN1C[C@@H]2CN(C(=O)c3cc4cc(F)ccc4[nH]3)C[C@@H]2C1 [Example 16, 5-Fluoro-2-{[(3aR,6aS)-5-methylhexahydropyrrolo[3,4-c]pyrrol-2(1H)-yl]carbonyl}-1H-indole] — 0.62 log units higher, 7.70
- CN1C[C@@H]2CN(C(=O)c3cc4cc(Br)ccc4[nH]3)C[C@@H]2C1 [Example 21, 5-Bromo-2-{[(3aR,6aS)-5-methylhexahydropyrrolo[3,4-c]pyrrol-2(1H)-yl]carbonyl}-1H-indole] — 0.29 log units higher, 7.37
- CN1C[C@@H]2CN(C(=O)c3cc4cccc(F)c4[nH]3)C[C@@H]2C1 [Example 22, 7-Fluoro-2-{[(3aR,6aS)-5-methylhexahydropyrrolo[3,4-c]pyrrol-2(1H)-yl]carbonyl}-1H-indole] — 0.62 log units higher, 7.70
- CN1C[C@@H]2CN(C(=O)c3nc4ccc(F)c(F)c4[nH]3)C[C@@H]2C1 [Example 25, 6,7-Difluoro-2-{[(3aR,6aS)-5-methylhexahydropyrrolo[3,4-c]pyrrol-2(1H)-yl]carbonyl}-1H-benzimidazole] — within 0.2 log units, 7.17
- Cc1cccc2nc(C(=O)N3C[C@H]4CN(C)C[C@H]4C3)[nH]c12 [Example 26, 7-Methyl-2-{[(3aR,6aS)-5-methylhexahydropyrrolo[3,4-c]pyrrol-2(1H)-yl]carbonyl}-1H-benzimidazole] — within 0.2 log units, 6.96
- CN1C[C@@H]2CN(C(=O)c3nc4cc(F)c(F)cc4[nH]3)C[C@@H]2C1 [Example 27, 5,6-Difluoro-2-{[(3aR,6aS)-5-methylhexahydropyrrolo[3,4-c]pyrrol-2(1H)-yl]carbonyl}-1H-benzimidazole] — within 0.2 log units, 6.93
- Cc1c(F)ccc2nc(C(=O)N3C[C@H]4CN(C)C[C@H]4C3)[nH]c12 [Example 41, 5-fluoro-4-methyl-2-{[(3aR,6aS)-5-methylhexahydropyrrolo [3,4-c]pyrrol-2(1H)-yl]carbonyl}-1H-benzimidazole] — 0.20 log units higher, 7.28
- Cc1c(Cl)ccc2[nH]c(C(=O)N3C[C@H]4CN(C)C[C@H]4C3)nc12 [Example 48, 5-Chloro-4-methyl-2-{[(3aR,6aS)-5-methylhexahydropyrrolo[3,4-c]pyrrol-2(1H)-yl]carbonyl}-1H-benzimidazole] — within 0.2 log units, 7.04
- CN1C[C@@H]2CN(C(=O)c3nc4c(F)c(F)c(F)cc4[nH]3)C[C@@H]2C1 [Example 58, 4,5,6-Trifluoro-2-{[(3aR,6aS)-5-methylhexahydropyrrolo [3,4-c]pyrrol-2(1H)-yl]carbonyl}-1H-benzimidazole] — within 0.2 log units, 7.00
- CN1C[C@@H]2CN(C(=N)c3nc4cc(F)c(F)cc4[nH]3)C[C@@H]2C1 [Example 59, 1-(5,6-Difluoro-1H-benzimidazol-2-yl)-1-[(3aR,6aS)-5-methylhexahydropyrrolo[3,4-c]pyrrol-2(1H)-yl]methanimine] — 1.07 log units higher, 8.15
- CN1C[C@@H]2CN(C(=N)c3nc4cc(F)ccc4[nH]3)C[C@@H]2C1 [Example 60, 1-(5-Fluoro-1H-benzimidazol-2-yl)-1-[(3aR,6aS)-5-methylhexahydropyrrolo[3,4-c]pyrrol-2(1H)-yl]methanimine] — 1.14 log units higher, 8.22
- CN1C[C@@H]2CN(C(=N)c3nc4c(F)c(F)ccc4[nH]3)C[C@@H]2C1 [Example 61, 1-(4,5-Difluoro-1H-benzimidazol-2-yl)-1-[(3aR, 6aS)-5-methylhexahydropyrrolo[3,4-c]pyrrol-2(1H)-yl]methanimine] — 0.54 log units higher, 7.62
- Cc1cccc2nc(C(=N)N3C[C@H]4CN(C)C[C@H]4C3)[nH]c12 [Example 62, 1-(4-Methyl-1H-benzimidazol-2-yl)-1-[(3aR, 6aS)-5-methylhexahydropyrrolo[3,4-c]pyrrol-2(1H)-yl]methanimine] — 1.07 log units higher, 8.15
- CN1C[C@@H]2CN(C(=N)c3nc4cc(F)cc(F)c4[nH]3)C[C@@H]2C1 [Example 63, 1-(4,6-Difluoro-1H-benzimidazol-2-yl)-1-[(3aR, 6aS)-5-methylhexahydropyrrolo[3,4-c]pyrrol-2(1H)-yl]methanimine] — 0.25 log units higher, 7.33
- Cc1c(F)ccc2nc(C(=N)N3C[C@H]4CN(C)C[C@H]4C3)[nH]c12 [Example 64, 1-(6-Fluoro-7-methyl-1H-benzimidazol-2-yl)-1-[(3aR, 6aS)-5-methylhexahydropyrrolo[3,4-c]pyrrol-2(1H)-yl]methanimine] — 1.32 log units higher, 8.40
- Cc1c(Cl)ccc2nc(C(=N)N3C[C@H]4CN(C)C[C@H]4C3)[nH]c12 [Example 65, 1-(6-Chloro-7-methyl-1H-benzimidazol-2-yl)-1-[(3aR, 6aS)-5-methylhexahydropyrrolo[3,4-c]pyrrol-2(1H)-yl]methanimine] — 0.84 log units higher, 7.92
- CN1C[C@@H]2CN(C(=N)c3nc4cccc(F)c4[nH]3)C[C@@H]2C1 [Example 66, 1-(7-Fluoro-1H-benzimidazol-2-yl)-1-[(3aR, 6aS)-5-methylhexahydropyrrolo[3,4-c]pyrrol-2(1H)-yl]methanimine] — 0.54 log units higher, 7.62
- CN1C[C@@H]2CN(C(=N)c3nc4c(F)c(F)c(F)cc4[nH]3)C[C@@H]2C1 [Example 67, 1-[(3aR, 6aS)-5-Methylhexahydropyrrolo[3,4-c]pyrrol-2(1H)-yl]-1-(4,5,6-trifluoro-1H-benzimidazol-2-yl)methanimine] — within 0.2 log units, 7.22
- CN1C[C@@H]2CN(C(=N)c3nc4cc(Cl)ccc4[nH]3)C[C@@H]2C1 [Example 68, 1-(5-Chloro-1H-benzimidazol-2-yl)-1-[(3aR, 6aS)-5-methylhexahydropyrrolo[3,4-c]pyrrol-2(1H)-yl]methanimine] — 0.51 log units higher, 7.59
